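Test compounds were applied to cells in 96-well plates for 48 hours at 5 doses. At the GI50, growth is halved.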 Calls of active or inactive are those of the source. No stated cut-off is given here; in the data, active = GI50 up to about 1.1 µM and inactive = higher.
Columns and labels:
Assay in all cases: growth of human tumour cells (NCI), 48 h
SK-MEL-5 = tested on: SK-MEL-5
IGROV-1 = tested on: IGROV-1
CCRF-CEM = tested on: CCRF-CEM
CAKI-1 = tested on: CAKI-1
NCI-H226 = tested on: NCI-H226
A549 = tested on: A549
OVCAR-3 = tested on: OVCAR-3
U-251 = tested on: U-251
SN12C = tested on: SN12C
ACHN = tested on: ACHN
K562 = tested on: K562
HCC 2998 = tested on: HCC 2998
MDA-MB-231 = tested on: MDA-MB-231
NCI-H23 = tested on: NCI-H23
T47D = tested on: T47D
MOLT-4 = tested on: MOLT-4
Malme-3M = tested on: Malme-3M
HOP-92 = tested on: HOP-92
UACC-62 = tested on: UACC-62
RPMI-8226 = tested on: RPMI-8226

Measured: GI50

CCOC(=S)SC/C(=N\OC(C)(C)OC)c1ccccc1
inactive: SK-MEL-5 41 µM | IGROV-1 46.5 µM | CCRF-CEM 18.1 µM | CAKI-1 > 100 µM | NCI-H226 43.8 µM | A549 44.7 µM | OVCAR-3 41.1 µM | U-251 41.9 µM | SN12C 89.7 µM | ACHN 71.3 µM | K562 20.6 µM | HCC 2998 26.9 µM | MDA-MB-231 > 100 µM | NCI-H23 31.7 µM | T47D 20.7 µM | MOLT-4 20 µM | Malme-3M 45 µM | HOP-92 20.7 µM | UACC-62 31.3 µM

CC1(C)CC23CC(C)(C)c4cccc(c42)OCc2ccc4ccc5ccc(nc5c4n2)COc2cccc1c23
inactive: SK-MEL-5 > 50 µM | IGROV-1 > 50 µM | CAKI-1 > 50 µM | NCI-H226 > 50 µM | RPMI-8226 > 50 µM | A549 > 50 µM | OVCAR-3 > 50 µM | U-251 > 50 µM | SN12C > 50 µM | ACHN > 50 µM | K562 > 50 µM | HCC 2998 > 50 µM | MDA-MB-231 > 50 µM | T47D > 50 µM | MOLT-4 > 50 µM | HOP-92 > 50 µM | UACC-62 > 50 µM

CC(=O)c1c2n(n(-c3ccccc3)c1=O)C(=O)c1nccnc1-2
inactive: SK-MEL-5 > 100 µM | IGROV-1 > 100 µM | CAKI-1 > 100 µM | NCI-H226 > 100 µM | RPMI-8226 > 100 µM | A549 > 100 µM | OVCAR-3 > 100 µM | U-251 > 100 µM | SN12C > 100 µM | ACHN > 100 µM | K562 > 100 µM | HCC 2998 > 100 µM | MDA-MB-231 > 100 µM | NCI-H23 > 100 µM | T47D > 100 µM | MOLT-4 > 100 µM | Malme-3M > 100 µM | HOP-92 > 100 µM | UACC-62 > 100 µM

CCOC(=O)CC(=O)C(=O)NN=C1NCCCN1
inactive: SK-MEL-5 > 100 µM | IGROV-1 > 100 µM | CCRF-CEM > 100 µM | NCI-H226 > 100 µM | RPMI-8226 > 100 µM | A549 > 100 µM | OVCAR-3 > 100 µM | U-251 > 100 µM | SN12C > 100 µM | ACHN > 100 µM | K562 > 100 µM | HCC 2998 > 100 µM | MDA-MB-231 > 100 µM | NCI-H23 > 100 µM | T47D > 100 µM | MOLT-4 > 100 µM | Malme-3M > 100 µM | HOP-92 > 100 µM | UACC-62 > 100 µM

COc1ccc(/C=C2\N=C(N3CCOCC3)NC2=O)cc1
inactive: IGROV-1 > 100 µM | CCRF-CEM > 100 µM | CAKI-1 > 100 µM | NCI-H226 > 100 µM | RPMI-8226 > 100 µM | A549 > 100 µM | OVCAR-3 > 100 µM | U-251 > 100 µM | SN12C > 100 µM | ACHN > 100 µM | HCC 2998 > 100 µM | MDA-MB-231 > 100 µM | NCI-H23 > 100 µM | T47D > 100 µM | MOLT-4 > 100 µM | Malme-3M > 100 µM | HOP-92 > 100 µM | UACC-62 > 100 µM

COC(=O)C(=O)C(C(=O)OC)C(=O)C(=O)Nc1ccccc1C(N)=O (stereo unspecified)
inactive: SK-MEL-5 > 100 µM | IGROV-1 > 100 µM | CCRF-CEM > 100 µM | CAKI-1 > 100 µM | NCI-H226 > 100 µM | RPMI-8226 > 100 µM | A549 > 100 µM | OVCAR-3 > 100 µM | U-251 > 100 µM | SN12C > 100 µM | ACHN > 100 µM | HCC 2998 > 100 µM | MDA-MB-231 > 100 µM | NCI-H23 > 100 µM | T47D > 100 µM | MOLT-4 > 100 µM | Malme-3M > 100 µM | HOP-92 > 100 µM | UACC-62 > 100 µM

OCC(S)CS.[Bi] (stereo unspecified)
inactive: SK-MEL-5 31.4 µM | IGROV-1 18.3 µM | CCRF-CEM 1.25 µM | CAKI-1 11.8 µM | NCI-H226 51.8 µM | RPMI-8226 2.93 µM | A549 28 µM | OVCAR-3 10.8 µM | U-251 15.1 µM | SN12C 15.8 µM | ACHN 16.5 µM | K562 5.68 µM | HCC 2998 13.6 µM | MDA-MB-231 24.4 µM | NCI-H23 17.1 µM | T47D 8.89 µM | Malme-3M 3.97 µM | HOP-92 23.7 µM | UACC-62 17.9 µM

COc1ccc(/C=C2\C(=O)N(C)C(=O)c3cc(OC)c(OC)cc32)cc1OC
inactive: SK-MEL-5 28.8 µM | IGROV-1 29.2 µM | CCRF-CEM 20.2 µM | CAKI-1 13.4 µM | NCI-H226 12.9 µM | RPMI-8226 27.7 µM | A549 65.6 µM | OVCAR-3 37.4 µM | U-251 33 µM | SN12C 32.8 µM | ACHN 30.5 µM | K562 28.2 µM | HCC 2998 > 100 µM | MDA-MB-231 39.4 µM | NCI-H23 39.5 µM | T47D 24.5 µM | MOLT-4 52.1 µM | HOP-92 23.4 µM | UACC-62 26.9 µM

c1ccc2c(c1)c1c(c3ccccc32)CN2CCCC2C1 (stereo unspecified)
inactive: SK-MEL-5 3.51 µM | IGROV-1 2.7 µM | CCRF-CEM 2.99 µM | CAKI-1 4.07 µM | RPMI-8226 4.24 µM | A549 2.96 µM | OVCAR-3 3.26 µM | U-251 3.4 µM | SN12C 2.7 µM | ACHN 3.01 µM | K562 8.39 µM | HCC 2998 4.22 µM | MDA-MB-231 3.2 µM | NCI-H23 2.94 µM | T47D 1.5 µM | MOLT-4 4.61 µM | Malme-3M 2.45 µM | HOP-92 2.84 µM | UACC-62 2.33 µM

O=[N+]([O-])C(C(Cl)=C(Cl)Cl)=C(N(Cc1ccccc1)Cc1ccccc1)N(Cc1ccccc1)Cc1ccccc1
inactive: SK-MEL-5 42.8 µM | IGROV-1 45.1 µM | CCRF-CEM 22.2 µM | CAKI-1 > 100 µM | NCI-H226 36.6 µM | A549 > 100 µM | OVCAR-3 > 100 µM | U-251 > 100 µM | SN12C 29.3 µM | ACHN 82 µM | K562 33.7 µM | HCC 2998 24 µM | MDA-MB-231 70.6 µM | NCI-H23 > 100 µM | T47D > 100 µM | MOLT-4 > 100 µM | Malme-3M 34 µM | HOP-92 15.6 µM | UACC-62 > 100 µM

CCCCCCc1cc2cc(C(=O)Nc3ccccc3)c(=N)oc2cc1O
inactive: SK-MEL-5 2.56 µM | IGROV-1 2.92 µM | CCRF-CEM 3.47 µM | CAKI-1 4.58 µM | NCI-H226 > 25.6 µM | RPMI-8226 4.08 µM | A549 3.27 µM | OVCAR-3 2.09 µM | U-251 2.99 µM | SN12C 2.42 µM | ACHN 3.44 µM | HCC 2998 3.46 µM | MDA-MB-231 3.36 µM | NCI-H23 2.36 µM | T47D 2.33 µM | MOLT-4 2.16 µM | Malme-3M 1.98 µM | HOP-92 3.25 µM | UACC-62 2.26 µM

Source: ChEMBL document CHEMBL1201862, “PubChem BioAssay data set” (2004)
